Test: Appetite reducing effects of coadministered procyanidin and hydroxycitric acid: voluntary food intake, placebo-controlled cross-over study
Assay type: in vivo, male Wistar rats
Settings: 155 mg hydroxycitric acid per kg rat alone, single intragastric bolus, vs placebo, paired student t, FIG. 2
Description: The appetite suppressive effects of a combination of procyanidin (pine bark extract containing 65 wt. % procyanidin) and hydroxycitric acid (Regulator™ ex HOB Ireland, Dublin, Ireland) was tested in male Wistar rats. In a placebo-controlled cross-over study, either 13 mg procyanidin per kg rat (A), 155 mg hydroxycitric acid per kg rat (B) or 13 mg procyanidin per kg rat and 155 mg hydroxycitric acid per kg rat (C) were administered as a single bolus intragastrically at 30 min before onset of the active (dark) period.
Subsequently, voluntary food intake was recorded continuously for 48 hours. Following this period, the experiment was repeated as part of the cross-over design (that is, rats which first received the procyanidins now received the placebo and vice versa).
Results are shown as absolute cumulative food intake after 1,2 and 4 hours (see FIG. 2). Statistical analysis (paired student t) was made of the data.

## O=C(O)CC(O)(C(=O)O)C(O)C(=O)O (centres unmarked) [hydroxycitric acid]
  absolute cumulative food intake after 1, 2 and 4 hours: did not result in a significant decrease
Listed as HCA
  absolute cumulative food intake after 1, 2 and 4 hours: did not show any significant appetite reducing effect
